Tests used:
α7nAChR (Aβ42 binding) = assay: FITC-Aβ42 binding to biotinylated α7nAChR-containing SK-N-MC cell fragments; parameters: species or system human; conditions: added simultaneously, 30° C., 30 minutes
[1] = tested on: voltage-gated Ca2+ channel mediated Ca2+ influx; format: cell-based, rat; conditions: slice cultures
NMDAR [2] = format: cell-based, rat; conditions: slice cultures, 0.1 μM Aβ42
α7nAChR = format: cell-based, rat
NMDAR [3] = assay: Levels of signaling molecules associated with NMDAR (NR1) in slice cultures; format: cell-based, rat; conditions: 0.1 μM Aβ42
Experimental: NMDAR activation and signaling was initiated by incubation of 6 slices with either 0.3 mM Mg^2+ containing KR (LMKR; basal) or LMKR containing 10 μM NMDA and 1 μM glycine at 37° C. for 30 minutes.
Ligand stimulation was terminated by the addition of 1 ml of ice-cold Ca^2+-free K-R containing mixture of protein phosphatase inhibitors, 0.5 mM EGTA and 0.1 mM EDTA. Brain slices were harvested by a brief centrifugation and were homogenized in 0.25 ml of ice-cold immunoprecipitation buffer. The homogenates were centrifuged at 1000×g for 5 minutes (4° C.) and the supernatant (post-mitochondrial fraction) was sonicated for 10 seconds on ice.
The resultant lysates were cleared by centrifugation at 50,000×g for 5 minutes and diluted with 0.75 ml of immunoprecipitation buffer. Protein concentrations were measured by Bradford method (Bio-Rad).
To determine the association of NMDARs with PSD-95, as well as NMDAR signaling, the levels of NMDAR subunits, PSD-95 and NMDAR-associated signaling molecules were measured in anti-NR1 immunoprecipitates. In these studies, brain slice lysates (100 μg) were immunoprecipitated overnight at 4° C. with 2 μg of immobilized anti-NR1 onto covalently conjugated protein A-agarose beads (Pierce-ENDOGEN). […]

FLNA-TLR4 association = assay: FLNA association with TLR4 in organotypic frontocortical slice cultures; format: cell-based, rat; conditions: 100 nM Aβ42, 16 hours, compound added simultaneously
Experimental: (§1) Tissue was harvested and solubilized, and a specific antibody against FLNA was used to immunoprecipitate FLNA and associated proteins. The FLNA immunoprecipitate was size-fractionated using SDS-PAGE, transferred and probed with specific antibodies directed against each of the following receptors: α7nAChR, TLR4, IR and MOR.
(§2) Rat brain slice organotypic culture methods were modified from those published previously. [Adamchik et al., Brain Res Brain Res Protoc 5:153-158 (2000).] FCX slices ([…]) were transferred to sterile, porous Millicell-CM inserts (0.4 μm). Each culture insert unit contained two brain slices and was placed into individual wells of a 12-well culture tray in 2 ml medium: 50% MEM with Earl's salts, 2 mM L-glutamine, 25% Earl's balanced salt solution, 6.5 g/l D-glucose, 20% fetal bovine serum (FBS), 5% horse serum, 25 mM HEPES buffer, pH 7.2, and […]. […]
(§3) The level of FLNA-associated α7nAChRs was determined using a co-immunoprecipitation/Western blotting method as described previously. […] The levels of FLNA-associated α7nAChR, TLR4, IR and MOR were assessed by Western blotting using specific antibodies directed against the respective proteins and the blot stripped and re-probed for FLNA for immunoprecipitation/loading control.

insulin receptor (IR) = assay: IR activation and signaling (pY1150/1151 IRβ, IRS-1) in slice cultures; format: cell-based, rat; conditions: insulin stimulation
Experimental: IR activation and signaling was initiated by incubation of 6 slices that were further chopped horizontally into 100 μm (100 μm×200 μm×3 mm) with either KR (basal) or KR containing 1 nM insulin at 37° C. for 30 minutes. […] Ligand stimulation was terminated by the addition of 1 ml of ice-cold Ca^2+-free K-R containing mixture of protein phosphatase inhibitors, 0.5 mM EGTA and 0.1 mM EDTA. Brain slices were harvested by a brief centrifugation and were homogenized in 0.25 ml of ice-cold immunoprecipitation buffer. The homogenates were centrifuged at 1000×g for 5 minutes (4° C.) and the supernatant (post-mitochondrial fraction) was sonicated for 10 seconds on ice. […] The resultant lysates were then cleared by centrifugation at 50,000×g for 5 minutes and diluted with 0.75 ml of immunoprecipitation buffer. Protein concentrations were measured by Bradford method (Bio-Rad).
In these experiments, brain slice lysates (100 μg) were immunoprecipitated overnight (about 18 hours) at 4° C. with 2 μg of immobilized anti-IRβ onto covalently conjugated protein A-agarose beads (Pierce-ENDOGEN). […]

FLNA-α7nAChR association = assay: FLNA association with α7nAChR in organotypic frontocortical slice cultures; format: cell-based, rat; conditions: 100 nM Aβ42, 16 hours, compound added simultaneously
Experimental: as §1, §2, §3

[4] = tested on: tau (pSer202, pThr231, pThr181); assay: Tau phosphorylation in organotypic frontocortical slice cultures; format: cell-based, rat; conditions: C0105 0.1, 1, 10 nM; C0114 1, 10 nM; simultaneous with Aβ42
Experimental: On the day of study, medium was removed, the brain slices rinsed and incubated in 0.1% FBS-containing medium for 4 hours at 36° C. in 5% CO2.
The levels of phosphorylated tau (pSer202tau, pThr231tau and pThr181tau) as well as total tau precipitated (loading controls) are assessed by Western blotting using specific antibodies directed against each of the phosphoepitopes and the anti-tau, respectively.

## O=C1CNC2(CCNCC2)N1Cc1ccccc1 [Compound C0114]
α7nAChR (Aβ42 binding); 0.1 nM compound
  Inhibition of FITC-Aβ42 binding: 27.8±3.3%
α7nAChR (Aβ42 binding); 1 nM compound
  Inhibition of FITC-Aβ42 binding: 40.0±2.1%
α7nAChR (Aβ42 binding); 10 nM compound
  Inhibition of FITC-Aβ42 binding: 53.4±3.6%
[1]
  Aβ42-induced reduction of K+-evoked calcium influx: completely reversed
NMDAR [2]
  Aβ42-induced impairment in NMDAR function (calcium influx after NMDA and glycine): significantly restoring NMDAR function
α7nAChR
  Aβ42-induced impairment in α7nAChR function (calcium influx after PNU282987): restored functioning of this receptor
NMDAR [3]
  Levels of six signaling molecules associated with NR1 after NMDA and glycine: fully restored function
FLNA-TLR4 association
  Aβ42-induced increase in FLNA-TLR4 association: reduced the FLNA-α7AchR association at both concentrations and the FLNA-TLR4 association at 10 nM
Insulin receptor (IR)
  Aβ42-induced IR signaling impairments (IRS-1 association, pY1150/1151 IRβ): normalized the signaling impairments
FLNA-α7nAChR association
  Aβ42-induced increase in FLNA-α7nAChR association: reduced the FLNA-α7AchR association at both concentrations
[4]
  Aβ42-induced tau phosphorylation: reduced tau phosphorylation at all three phosphorylation sites
